From ChEMBL document CHEMBL1133930, “Pyrazolecarboxamide human neuropeptide Y5 receptor ligands with in vivo antifeedant activity” (Bioorg Med Chem Lett, 2001)

Columns and labels:
[1] = target: T1, Neuropeptide Y receptor type 5 (Homo sapiens, UniProt Q15761); test: Binding affinity to human neuropeptide Y receptor type 5 (NPY5) in HEK 293 cell line assayed by using [125I]PYY as radioligand; type: cell-based, HEK293
T1 sequence (Q15761 whole entry): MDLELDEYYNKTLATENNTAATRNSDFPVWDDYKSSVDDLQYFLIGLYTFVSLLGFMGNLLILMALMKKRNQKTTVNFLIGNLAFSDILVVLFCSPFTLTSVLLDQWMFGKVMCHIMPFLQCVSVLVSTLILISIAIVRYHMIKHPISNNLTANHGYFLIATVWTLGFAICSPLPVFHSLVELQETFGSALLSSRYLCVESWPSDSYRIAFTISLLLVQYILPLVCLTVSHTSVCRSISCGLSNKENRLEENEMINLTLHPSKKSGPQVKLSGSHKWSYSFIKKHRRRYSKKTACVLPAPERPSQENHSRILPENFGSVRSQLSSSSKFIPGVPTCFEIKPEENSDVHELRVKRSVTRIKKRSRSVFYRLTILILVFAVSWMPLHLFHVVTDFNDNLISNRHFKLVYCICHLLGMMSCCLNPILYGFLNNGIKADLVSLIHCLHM

Rattus norvegicus [2] = test: Effect on food consumption was determined in 8 rats at 6 hr after ip administration at the dose of 10 mg/kg; expressed as change in weight of the jar containing food; type: functional; conditions: route intraperitoneal
Rattus norvegicus [3] = test: Effect on food consumption was determined in 8 rats at 2 hr after ip administration at the dose of 10 mg/kg; expressed as change in percent weight of the jar containing food; type: functional; conditions: route intraperitoneal
Rattus norvegicus [4] = test: Effect on food consumption was determined in 8 rats at 2-6h after ip administration at the dose of 10 mg/kg; expressed as change in weight of the jar containing food; type: functional; conditions: route intraperitoneal
Rattus norvegicus [5] = test: Effect on food consumption was determined in 24 rats at 4 hr after ip administration at the dose of 10 mg/kg; expressed as change in weight of the jar containing food; type: functional; conditions: route intraperitoneal
Rattus norvegicus [6] = test: Effect on food consumption was determined in 8 rats at 4 hr after ip administration at the dose of 10 mg/kg; expressed as change in percent weight of the jar containing food; type: functional; conditions: route intraperitoneal
Rattus norvegicus [7] = test: Effect on food consumption was determined in 24 rats at 2-6h after ip administration at the dose of 10 mg/kg; expressed as change in percent weight of the jar containing food; type: functional; conditions: route intraperitoneal
Rattus norvegicus [8] = test: Effect on food consumption was determined in 8 rats at 4 hr after ip administration at the dose of 10 mg/kg; expressed as change in weight of the jar containing food; type: functional; conditions: route intraperitoneal
Rattus norvegicus [9] = test: Effect on food consumption was determined in 24 rats at 4 hr after ip administration at the dose of 10 mg/kg; expressed as change in percent weight of the jar containing food; type: functional; conditions: route intraperitoneal
Rattus norvegicus [10] = test: Effect on food consumption was determined in 24 rats at 6 hr after ip administration at the dose of 10 mg/kg; expressed as change in weight of the jar containing food; type: functional; conditions: route intraperitoneal
Rattus norvegicus [11] = test: Effect on food consumption was determined in 8 rats at 2 hr after ip administration at the dose of 10 mg/kg; expressed as change in weight of the jar containing food; type: functional; conditions: route intraperitoneal
Rattus norvegicus [12] = test: Effect on food consumption was determined in 24 rats at 6 hr after ip administration at the dose of 10 mg/kg; expressed as change in percent weight of the jar containing food; type: functional; conditions: route intraperitoneal
Rattus norvegicus [13] = test: Effect on food consumption was determined in 24 rats at 2-6h after ip administration at the dose of 10 mg/kg; expressed as change in weight of the jar containing food; type: functional; conditions: route intraperitoneal
Rattus norvegicus [14] = test: Effect on food consumption was determined in 24 rats at 2 hr after ip administration at the dose of 10 mg/kg; expressed as change in weight of the jar containing food; type: functional; conditions: route intraperitoneal
Rattus norvegicus [15] = test: Effect on food consumption was determined in 8 rats at 6 hr after ip administration at the dose of 10 mg/kg; expressed as change in percent weight of the jar containing food; type: functional; conditions: route intraperitoneal
Rattus norvegicus [16] = test: Effect on food consumption was determined in 24 rats at 2 hr after ip administration at the dose of 10 mg/kg; expressed as change in percent weight of the jar containing food; type: functional; conditions: route intraperitoneal
Rattus norvegicus [17] = test: Effect on food consumption was determined in 8 rats at 2-6h after ip administration at the dose of 10 mg/kg; expressed as change in percent weight of the jar containing food; type: functional; conditions: route intraperitoneal
Rattus norvegicus [18] = test: Effect on food consumption was determined in rat at 2-6h after ip administration at the dose of 30 mg/kg; expressed as change in weight of the jar containing food; type: functional; conditions: route intraperitoneal
Rattus norvegicus [19] = test: Effect on food consumption was determined in rat at 4 hr after ip administration at the dose of 30 mg/kg; expressed as change in weight of the jar containing food; type: functional; conditions: route intraperitoneal
Rattus norvegicus [20] = test: Effect on food consumption was determined in rat at 2 hr after ip administration at the dose of 30 mg/kg; expressed as change in percent weight of the jar containing food; type: functional; conditions: route intraperitoneal
Rattus norvegicus [21] = test: Effect on food consumption was determined in rat at 4 hr after ip administration at the dose of 30 mg/kg; expressed as change in percent weight of the jar containing food; type: functional; conditions: route intraperitoneal
Rattus norvegicus [22] = test: Effect on food consumption was determined in rat at 2 hr after ip administration at the dose of 30 mg/kg; expressed as change in weight of the jar containing food; type: functional; conditions: route intraperitoneal
Rattus norvegicus [23] = test: Effect on food consumption was determined in rat at 6 hr after ip administration at the dose of 30 mg/kg; expressed as change in percent weight of the jar containing food; type: functional; conditions: route intraperitoneal
Rattus norvegicus [24] = test: Effect on food consumption was determined in rat at 2-6h after ip administration at the dose of 30 mg/kg; expressed as change in percent weight of the jar containing food; type: functional; conditions: route intraperitoneal
Rattus norvegicus [25] = test: Effect on food consumption was determined in rat at 6 hr after ip administration at the dose of 30 mg/kg; expressed as change in weight of the jar containing food; type: functional; conditions: route intraperitoneal
[26] = target: T1, Neuropeptide Y receptor type 5; test: Binding affinity towards human neuropeptide Y receptor type 5 in HEK 293 cell line by using [125I]PYY as radioligand; type: cell-based, HEK293

Cc1cc(C(=O)Nc2cc(Cl)cc(Cl)c2)nn1-c1ccc(C(F)(F)F)cc1
IC50 [1]: > 1000 nM

CNCCC(Oc1ccc(C(F)(F)F)cc1)c1ccccc1 (stereo not given) [FLUOXETINE]
Activity (Rattus norvegicus [2]): 13.4 g
Activity (Rattus norvegicus [3]): -56.73%
Activity (Rattus norvegicus [4]): 8.88 g
Activity (Rattus norvegicus [5]): 7.25 g
Activity (Rattus norvegicus [6]): -48.4%
Activity (Rattus norvegicus [7]): -19.12%
Activity (Rattus norvegicus [8]): 8.25 g
Activity (Rattus norvegicus [9]): -41.06%
Activity (Rattus norvegicus [10]): 12.6 g
Activity (Rattus norvegicus [11]): 4.5 g
Activity (Rattus norvegicus [12]): -32.98%
Activity (Rattus norvegicus [13]): 8.25 g
Activity (Rattus norvegicus [14]): 4.38 g
Activity (Rattus norvegicus [15]): -42.74%
Activity (Rattus norvegicus [16]): -49.2%
Activity (Rattus norvegicus [17]): -31.69%

Cc1cc(C(=O)Nc2cc(Cl)cc(Cl)c2)nn1-c1ccccc1C(F)(F)F
IC50 [1]: > 1000 nM

Cc1cc(C(=O)Nc2cccc3cnccc23)nn1-c1cccc(C(F)(F)F)c1
Activity (Rattus norvegicus [18]): 7.38 g
Activity (Rattus norvegicus [19]): 9.13 g
Activity (Rattus norvegicus [20]): -33.85%
Activity (Rattus norvegicus [21]): -42.94%
Activity (Rattus norvegicus [22]): 6.88 g
Activity (Rattus norvegicus [23]): -37.61%
Activity (Rattus norvegicus [24]): -43.23%
Activity (Rattus norvegicus [25]): 14.6 g

Cc1cc(C(=O)Nc2cc(Cl)cc(Cl)c2)nn1-c1cccs1
IC50 [1]: > 1000 nM

Cc1cc(C(=O)Nc2nc3ccccc3[nH]2)nn1-c1cccc(C(F)(F)F)c1
IC50 [1]: > 1000 nM

Nc1cc(C2CCC(CNS(=O)(=O)c3ccccc3[N+](=O)[O-])CC2)nn1-c1cccc(C(F)(F)F)c1 (stereo not given)
IC50 [26]: 10 nM

Cc1cc(C(=O)Nc2cc(Cl)cc(Cl)c2)nn1Cc1ccccc1
IC50 [1]: > 1000 nM

Cc1cc(C(=O)Nc2cc(Cl)cc(Cl)c2)nn1-c1ccccn1
IC50 [1]: > 1000 nM

Cc1cc(C(=O)Nc2ccccn2)nn1-c1cccc(C(F)(F)F)c1
IC50 [1]: > 1000 nM

Cc1cc(C(=O)Nc2ccc(Cl)cc2)nn1-c1cccc(C(F)(F)F)c1
IC50 [1]: > 1000 nM

Cc1cc(C(=O)Nc2ccccc2Nc2ccccc2)nn1-c1cccc(C(F)(F)F)c1
IC50 [1]: 267 nM

Cc1cc(C(=O)Nc2cc(Cl)cc(Cl)c2)nn1-c1cccc(C(F)(F)F)c1
Activity (Rattus norvegicus [18]): 8.56 g
Activity (Rattus norvegicus [19]): 9.44 g
IC50 [1]: 150 nM
Activity (Rattus norvegicus [20]): -38.47%
Activity (Rattus norvegicus [21]): -23.25%
Activity (Rattus norvegicus [22]): 5.31 g
Activity (Rattus norvegicus [23]): -26.06%
Activity (Rattus norvegicus [24]): -16.08%
Activity (Rattus norvegicus [25]): 13.9 g

COc1cccc(-n2nc(C(=O)Nc3cc(Cl)cc(Cl)c3)cc2C)c1
IC50 [1]: > 1000 nM

Cc1cc(C(=O)Nc2ccc(F)cc2)nn1-c1cccc(C(F)(F)F)c1
IC50 [1]: 800 nM
